From patent US10144730B2, “Inhibitors of c-Jun-N-terminal kinase (JNK)” (Dana-Farber Cancer Institute, Inc., priority 2011, dated 2018) come the findings set out here.

For experiment [1], the target named is additional kinase targets. The experiment can be described thus: Follow-up enzymatic IC50 or Kd on potential additional kinase targets. Conditions: further biochemical and binding assays. The text has this:
Scores were obtained from the profiling against a […] using Kinome Scan™ technology as illustrated in FIG. 11.
To complement the KiNativ profiling, the in vitro kinase selectivity of several key compounds was comprehensively evaluated by two complementary approaches: a kinase-binding assays against a panel of 442 distinct kinases using the KINOMEscan methodology (DiscoverX) and a standard radioactivity-based enzymatic assays against a panel of 124 kinases (The National Centre for Protein Kinase Profiling in Dundee). […] It was attempted to confirm all these potent binding targets using either an enzymatic kinase assay or through the measurement of a dissociation constant to the kinase in question.

Another experiment has as its system c-Jun phosphorylation. The experiment can be described thus: Western blot of anisomycin-stimulated phosphorylation in HEK293-IL1R cells. Format: cell-based. Here is the method: FIGS. 16A and 16B depict Western blot results. […] Cell lysates were prepared, resolved by SDS-PAGE, and p-c-Jun (Ser63) and p-JNK were monitored by Western blot.
HEK-293 cells stably expressing Interleukin Receptor 1 (HEK293-IL1R) were cultured in Dulbecco's Modified Eagle's medium (DMEM) supplemented with 10% FBS, 2 mM glutamine and 1× antimycotic/antibiotic solution. Cells were serum starved for 18 h before incubation with DMSO or different inhibitors, stimulated with 2 μM anisomycin (Sigma) for 1 h, and lysates were clarified by centrifugation for 10 min at 16000 g and 4° C.
Rabbit polyclonal antibodies against total pan JNK isoforms ((#9252), phospho-pan JNK isoforms (Thr183/Tyr185), (#4668), total p38 (#9212) or phospho-p38 MAPK (Thr180/Tyr182), (4631 resp.), total c-Jun (#9165), phospho-c-Jun (Ser63) (#9261), and phospho-MSK1 (Ser376) (#9591) were from Cell Signalling technology.
Cell lysates (30 μg) were resolved by electrophoresis on SDS polyacrylamide gels (10%) or Novex 4-12% gradient gels, and electroblotted to nitrocellulose membranes. Membranes were blocked with 5% skimmed milk (w/v) in 50 mM Tris/HCl (pH 7.5) 0.15 M NaCl, and 0.1% (v/v) Tween (TBST Buffer). Primary antibodies were used at a concentration of 1 μg/ml, diluted in 5% skimmed milk in TBST, and incubated overnight at 4° C. […]

The next experiment concerns the target JNK3 (Homo sapiens, UniProt P53779). In words: Biochemical JNK3 kinase inhibition (Z'-lyte format). Conditions: Table 2.
For another experiment, the target named is T1, HIPK4 (Homo sapiens, UniProt Q8NE63).
T1 sequence (Q8NE63 1-616): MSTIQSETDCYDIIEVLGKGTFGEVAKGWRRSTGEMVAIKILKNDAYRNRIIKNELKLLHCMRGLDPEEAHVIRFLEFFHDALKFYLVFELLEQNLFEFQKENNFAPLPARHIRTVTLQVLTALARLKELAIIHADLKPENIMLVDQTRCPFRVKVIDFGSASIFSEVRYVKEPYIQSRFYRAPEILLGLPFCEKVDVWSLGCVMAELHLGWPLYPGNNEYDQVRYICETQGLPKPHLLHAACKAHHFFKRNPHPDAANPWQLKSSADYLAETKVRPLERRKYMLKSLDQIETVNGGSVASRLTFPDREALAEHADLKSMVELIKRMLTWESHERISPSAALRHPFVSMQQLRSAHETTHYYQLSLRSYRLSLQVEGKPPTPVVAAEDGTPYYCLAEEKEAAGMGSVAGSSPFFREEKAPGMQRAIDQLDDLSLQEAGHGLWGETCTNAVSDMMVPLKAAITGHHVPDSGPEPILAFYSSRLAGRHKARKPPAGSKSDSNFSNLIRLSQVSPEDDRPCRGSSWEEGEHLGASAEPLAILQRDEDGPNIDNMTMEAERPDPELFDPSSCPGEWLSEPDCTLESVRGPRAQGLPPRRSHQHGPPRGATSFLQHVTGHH
The experiment can be described thus: HIPK4 follow-up enzymatic assay. The experiment is classed as biochemical. Conditions: follow-up enzymatic assay (FIG. 12). From the text: (§1) This high in vitro selectivity however differed markedly from the large number of targets detected by KiNativ.

The target in a further experiment is AKT2 (Homo sapiens, UniProt P31751). The experiment can be described thus: AKT2 follow-up enzymatic assay. The following applies: follow-up enzymatic assay (FIG. 12). Format: biochemical.
AKT2, sequence (P31751 whole entry, species assumed): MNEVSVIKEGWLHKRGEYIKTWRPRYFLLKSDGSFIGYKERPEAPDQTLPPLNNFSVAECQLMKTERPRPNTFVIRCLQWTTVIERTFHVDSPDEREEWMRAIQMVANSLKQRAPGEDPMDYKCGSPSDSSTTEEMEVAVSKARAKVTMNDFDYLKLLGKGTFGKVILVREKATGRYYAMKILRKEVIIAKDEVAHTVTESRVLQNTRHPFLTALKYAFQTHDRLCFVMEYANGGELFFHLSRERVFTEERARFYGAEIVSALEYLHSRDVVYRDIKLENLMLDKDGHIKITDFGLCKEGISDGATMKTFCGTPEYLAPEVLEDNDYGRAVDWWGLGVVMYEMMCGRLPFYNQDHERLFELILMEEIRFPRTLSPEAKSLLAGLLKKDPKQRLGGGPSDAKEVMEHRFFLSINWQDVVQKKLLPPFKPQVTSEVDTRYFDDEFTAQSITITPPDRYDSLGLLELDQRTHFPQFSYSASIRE
Description: as §1

A further experiment concerns the target JNK2 (Homo sapiens, UniProt P45984). In words: Biochemical JNK2 kinase inhibition (Z'-lyte format). Conditions: Table 2.
The target of another experiment is JNK1 (Homo sapiens, UniProt P45983). In words: Biochemical JNK1 kinase inhibition (Z'-lyte format). The following applies: Table 2.
JNK1, sequence (P45983 whole entry): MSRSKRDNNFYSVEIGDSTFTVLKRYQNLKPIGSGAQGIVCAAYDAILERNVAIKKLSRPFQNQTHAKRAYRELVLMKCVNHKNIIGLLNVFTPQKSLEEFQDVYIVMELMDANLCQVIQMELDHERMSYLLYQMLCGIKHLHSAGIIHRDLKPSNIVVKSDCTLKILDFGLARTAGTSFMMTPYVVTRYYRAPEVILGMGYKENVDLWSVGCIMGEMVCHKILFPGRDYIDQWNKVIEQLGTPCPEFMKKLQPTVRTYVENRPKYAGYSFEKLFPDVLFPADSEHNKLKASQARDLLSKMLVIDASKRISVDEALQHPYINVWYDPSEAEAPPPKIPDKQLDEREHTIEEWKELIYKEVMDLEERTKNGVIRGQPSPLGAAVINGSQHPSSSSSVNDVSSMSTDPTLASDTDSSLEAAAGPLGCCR
The target of the next experiment is IRAK1 (Homo sapiens, UniProt P51617). In words: IRAK1 biochemical kinase assay. Conditions: biochemical / follow-up enzymatic assay; read-out: IC50 against IRAK1.
IRAK1, sequence (P51617 whole entry): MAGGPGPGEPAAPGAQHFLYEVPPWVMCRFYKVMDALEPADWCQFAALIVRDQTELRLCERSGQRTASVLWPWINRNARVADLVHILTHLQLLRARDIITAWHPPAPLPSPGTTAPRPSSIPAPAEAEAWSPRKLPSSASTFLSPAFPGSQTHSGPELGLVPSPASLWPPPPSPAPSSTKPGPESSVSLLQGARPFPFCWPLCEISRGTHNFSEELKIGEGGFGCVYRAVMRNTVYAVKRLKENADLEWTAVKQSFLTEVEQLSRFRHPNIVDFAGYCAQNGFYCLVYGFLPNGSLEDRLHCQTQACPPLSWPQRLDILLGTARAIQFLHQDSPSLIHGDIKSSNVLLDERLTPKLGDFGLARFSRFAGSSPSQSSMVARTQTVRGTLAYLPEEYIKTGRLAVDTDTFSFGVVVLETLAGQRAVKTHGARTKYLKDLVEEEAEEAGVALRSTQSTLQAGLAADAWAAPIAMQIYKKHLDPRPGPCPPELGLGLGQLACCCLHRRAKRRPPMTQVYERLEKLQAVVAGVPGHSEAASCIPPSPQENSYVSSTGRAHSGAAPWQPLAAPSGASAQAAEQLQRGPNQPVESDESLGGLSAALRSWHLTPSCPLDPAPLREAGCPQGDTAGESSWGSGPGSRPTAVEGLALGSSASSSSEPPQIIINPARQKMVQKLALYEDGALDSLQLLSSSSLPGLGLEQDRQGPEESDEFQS

JNK2, sequence (P45984 whole entry): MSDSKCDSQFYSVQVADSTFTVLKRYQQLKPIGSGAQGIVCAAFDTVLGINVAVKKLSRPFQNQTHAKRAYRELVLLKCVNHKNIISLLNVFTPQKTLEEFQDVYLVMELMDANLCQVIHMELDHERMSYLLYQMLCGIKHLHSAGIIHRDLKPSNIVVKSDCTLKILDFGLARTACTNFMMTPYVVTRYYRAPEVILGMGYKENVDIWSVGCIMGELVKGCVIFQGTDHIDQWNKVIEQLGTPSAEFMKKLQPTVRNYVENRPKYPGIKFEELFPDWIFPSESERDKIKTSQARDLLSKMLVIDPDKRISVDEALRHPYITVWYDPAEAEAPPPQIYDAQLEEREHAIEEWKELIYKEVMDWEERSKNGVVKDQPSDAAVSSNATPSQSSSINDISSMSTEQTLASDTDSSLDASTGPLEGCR
JNK3, sequence (P53779 whole entry): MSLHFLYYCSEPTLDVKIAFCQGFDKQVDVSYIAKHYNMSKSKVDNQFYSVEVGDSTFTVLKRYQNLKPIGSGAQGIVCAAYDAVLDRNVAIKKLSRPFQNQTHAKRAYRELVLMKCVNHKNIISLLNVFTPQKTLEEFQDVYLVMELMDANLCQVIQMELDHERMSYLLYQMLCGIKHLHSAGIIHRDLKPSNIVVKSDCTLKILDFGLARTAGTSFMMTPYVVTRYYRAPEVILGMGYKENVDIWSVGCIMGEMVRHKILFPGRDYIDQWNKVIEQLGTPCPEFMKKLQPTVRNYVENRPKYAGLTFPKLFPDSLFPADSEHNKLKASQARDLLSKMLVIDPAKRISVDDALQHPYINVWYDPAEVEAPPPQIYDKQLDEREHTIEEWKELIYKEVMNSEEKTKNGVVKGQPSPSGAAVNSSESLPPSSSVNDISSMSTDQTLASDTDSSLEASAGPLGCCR

On to `Cc1cc(NC(=O)c2cccc(NC(=O)/C=C/CN(C)C)c2)ccc1Nc1nccc(-c2cccnc2)n1` [JNK-IN-8], for which the “IC50 or Kd of any further target” value in experiment [1] is ≥ 1.0 µM. Further, the “time for inhibition of JNK in cells to reach completion” value with c-Jun phosphorylation (HEK293-ILR1 cells (FIGS. 16A and 16B)) was “approximately 3 hours”. Further, in the experiment on c-Jun phosphorylation (HEK293-ILR1 cells, three hours treatment then washout), the “reversal of inhibition of c-Jun phosphorylation after removal of inhibitor (washout)” value is “not reversed”.

`CN(C)C/C=C/C(=O)Nc1cccc(C(=O)Nc2ccc(Nc3nccc(/C(C#N)=C4\Nc5ccccc5S4)n3)cc2)c1` [JNK-IN-12]: the IC50 against JNK3 came to 11 nM; against HIPK4 it was 57.1 nM; against AKT2 it was 89.9 nM; on JNK2 it was 11.3 nM; at JNK1, 13 nM; on IRAK1, 37.6 nM.
